Paper PMC12655637, “Design, Synthesis, and Mechanistic Study of Novel Ciprofloxacin/Thiazole Chalcone Hybrids as Potential Anticancer Agents” (Pharmaceuticals, 2025)

Experiments:
OVCAR-4 = experiment: NCI-60 screening, one-dose (10 µM) and five-dose, SRB; assay type: cell-based, human; conditions: Homo sapiens; 10 μM; OVCAR-4, Ovarian Cancer; read-out: Growth percentage
NCI-H322M = experiment: as above; assay type: cell-based, human; conditions: 10 μM, Non-Small-Cell Lung Cancer
[1] = tested on: 60 human cancer cell lines; experiment: NCI-60 screening, full panel (mean growth, MID a, ranges over all lines); conditions: Homo sapiens, read-out: Mean growth percentage
Procedure: The screening was performed in accordance with the protocols set forth by the Drug Evaluation Department of the National Cancer Institute (NCI), Bethesda, USA, for in vitro anticancer efficacy at a single concentration of 10 µM against a panel of 60 cancer cell lines derived from nine distinct organs (https://dctd.cancer.gov/data-tools-biospecimens/data (accessed on 15 March 2023 and 6 January 2024)) [37].
The log10 GI50, log10 TGI, and log10 LC50 values were subsequently calculated as the averages of the log10 values of the respective individual GI50, TGI, and LC50 measurements. Negative numbers signified the most sensitive cell lines.
One way to measure a compound’s selectivity is to divide its subpanel MID^b (in μM) by the MID^a (in μM), which is the average sensitivity of all cell lines to the test agent.
At the National Cancer Institute (NCI) in Bethesda, USA, researchers examined the anticancer potential of the target compounds under investigation using nine panels of sixty different cell lines obtained from nine different cancers that were housed in the NCI library. Following the protocols laid out by the National Cancer Institute (https://dctd.cancer.gov/data-tools-biospecimens/data (accessed on 15 March 2023 and 6 January 2024)), the screening procedures were carried out [37]. The anticancer screening was carried out at a single dose of 10^−5 M; the results obtained were expressed as growth inhibition (%).
The anti-cancer potential of the tested compounds was evaluated at the National cancer institute (NCI), Bethesda, USA, against 9 panels of 60 various cell lines derived from nine human tumours available usually at NCI library. The procedures for the screening were described in details in NCI website (dttp://www.dtp.nci.nih.gov.) and were done according to NCI protocols. The anticancer screening was carried out at single dose of 10^-5 M. The results obtained as growth inhibition (%).
Cell lines were grown in Roswell Park Memorial Institute medium (RPMI) with 5% fetal bovine serum and 2% μM L-glutamine. Cancer cells are inoculated into 96 well microtiter plates in 100 μL at plating densities ranging from 5000 to 40,000 cells/well depending on the doubling time of individual cell lines. Then microtiter plates are incubated at 37 °C, 5% CO2, 95% air and 100% relative humidity for 24 h prior to the addition of the tested compounds. After 24 h, two plates of each cell line are fixed in situ with trichloroacetic acid (TCA). The tested compounds were dissolved in dimethyl sulfoxide (DMSO) and stored in the freezer prior to use. An aliquot of frozen drug concentrate is diluted to the desired concentration with complete medium containing 50 μg/mL gentamicin.

U251 = experiment: NCI-60 screening, one-dose (10 µM) and five-dose, SRB; assay type: cell-based, human; conditions: Homo sapiens, U-251; 10 μM; U251, CNS Cancer; read-out: Growth percentage
IGROV1 = experiment: as above; assay type: cell-based, human; conditions: 10 μM; IGROV1, Ovarian Cancer
NCI-H522 = experiment: as above; assay type: cell-based, human; conditions: Homo sapiens; 10 μM; NCI-H522, Non-Small-Cell Lung Cancer; read-out: Growth percentage
MOLT-4 = experiment: as above; assay type: cell-based, human; conditions: Homo sapiens; 10 μM; MOLT-4, Leukemia; read-out: Growth percentage
CCRF-CEM = experiment: as above; assay type: cell-based, human; conditions: Homo sapiens, 10 μM, Leukemia, read-out: Growth percentage
HCC-2998 = experiment: as above; assay type: cell-based, human; conditions: Homo sapiens; 10 μM; HCC-2998, Colon Cancer; read-out: Growth percentage
MCF7 = experiment: as above; assay type: cell-based, human; conditions: Homo sapiens, MCF7, 10 μM; MCF7, Breast Cancer; read-out: Growth percentage
SK-OV-3 = experiment: as above; assay type: cell-based, human; conditions: Homo sapiens; 10 μM; SK-OV-3, Ovarian Cancer; read-out: Growth percentage
UACC-62 = experiment: as above; assay type: cell-based; conditions: Homo sapiens; 10 μM; UACC-62, Melanoma; read-out: Growth percentage
MALME-3M = experiment: as above; assay type: cell-based, human; conditions: 10 μM, Melanoma
SF-268 = experiment: as above; assay type: cell-based, human; conditions: Homo sapiens; 10 μM; SF-268, CNS Cancer; read-out: Growth percentage
HOP-92 = experiment: as above; assay type: cell-based, human; conditions: Homo sapiens; 10 μM; HOP-92, Non-Small-Cell Lung Cancer; read-out: Growth percentage
NCI-H23 = experiment: as above; assay type: cell-based, human; conditions: Homo sapiens; 10 μM; NCI-H23, Non-Small-Cell Lung Cancer; read-out: Growth percentage
DU-145 = experiment: as above; assay type: cell-based, human; conditions: Homo sapiens; 10 μM; DU-145, Prostate Cancer; read-out: Growth percentage
ACHN = experiment: as above; assay type: cell-based, human; conditions: Homo sapiens, 10 μM, Renal Cancer, read-out: Growth percentage
K-562 = experiment: as above; assay type: cell-based, human; conditions: Homo sapiens, K562, 10 μM; K-562, Leukemia; read-out: Growth percentage
OVCAR-3 = experiment: as above; assay type: cell-based; conditions: Homo sapiens; 10 μM; OVCAR-3, Ovarian Cancer; read-out: Growth percentage
KM12 = experiment: as above; assay type: cell-based, human; conditions: Homo sapiens, KM12, 10 μM; KM12, Colon Cancer; read-out: Growth percentage
HT29 = experiment: as above; assay type: cell-based, human; conditions: Homo sapiens, HT-29; 10 μM; HT29, Colon Cancer; read-out: Growth percentage
UACC-257 = experiment: as above; assay type: cell-based, human; conditions: Homo sapiens; 10 μM; UACC-257, Melanoma; read-out: Growth percentage
SNB-19 = experiment: as above; assay type: cell-based; conditions: Homo sapiens; 10 μM; SNB-19, CNS Cancer; read-out: Growth percentage
SK-MEL-28 = experiment: as above; assay type: cell-based, human; conditions: Homo sapiens; 10 μM; SK-MEL-28, Melanoma; read-out: Growth percentage
SF-539 = experiment: as above; assay type: cell-based, human; conditions: Homo sapiens, SF-539, 10 μM; SF-539, CNS Cancer; read-out: Growth percentage
HS 578T = experiment: as above; assay type: cell-based, human; conditions: Homo sapiens, 10 μM, Breast Cancer, read-out: Growth percentage
EKVX = experiment: as above; assay type: cell-based, human; conditions: Homo sapiens, 10 μM, Non-Small-Cell Lung Cancer, read-out: Growth percentage
T-47D = experiment: as above; assay type: cell-based, human; conditions: 10 μM, Breast Cancer
OVCAR-5 = experiment: as above; assay type: cell-based, human; conditions: 10 μM; OVCAR-5, Ovarian Cancer

CC(=O)c1sc(SCC(=O)N2CCN(c3cc4c(cc3F)c(=O)c(C(=O)O)cn4C3CC3)CC2)nc1C [Compound 4a, 7-(4-(2-((5-Acetyl-4-methylthiazol-2-yl)thio)acetyl)piperazin-1-yl)-1-cyclopropyl-6-fluoro-4-oxo-1,4-dihydroquinoline-3-carboxylic Acid]
activity at 10 µM (OVCAR-4): 95.1% | Growth percentage (NCI-H322M): 105.5% | activity at 10 µM [1]: 102% | activity at 10 µM (U251): 114% | Growth percentage (IGROV1): 115.9% | activity at 10 µM (NCI-H522): 98.9% | activity at 10 µM (MOLT-4): 102% | activity at 10 µM (CCRF-CEM): 96.2% | activity at 10 µM (HCC-2998): 96.6% | activity at 10 µM (MCF7): 94.2% | activity at 10 µM (SK-OV-3): 101% | activity at 10 µM (UACC-62): 104% | Growth percentage (MALME-3M): 104.9% | activity at 10 µM (SF-268): 103% | activity at 10 µM (HOP-92): 105% | activity at 10 µM (NCI-H23): 106% | activity at 10 µM (DU-145): 95.3% | activity at 10 µM (ACHN): 98.3% | activity at 10 µM (K-562): 123% | activity at 10 µM (OVCAR-3): 98.8% | activity at 10 µM (KM12): 102% | activity at 10 µM (HT29): 104% | activity at 10 µM (UACC-257): 102% | activity at 10 µM (SNB-19): 102% | activity at 10 µM (SK-MEL-28): 96.7% | activity at 10 µM (SF-539): 86.4% | activity at 10 µM (HS 578T): 87.4% | activity at 10 µM (EKVX): 104%

Cc1nc(SCC(=O)N2CCN(c3cc4c(cc3F)c(=O)c(C(=O)O)cn4C3CC3)CC2)sc1C(=O)/C=C/c1ccc(N(C)C)cc1 [Compound 4i, (E)-1-Cyclopropyl-7-(4-(2-((5-(3-(4-(dimethylamino)phenyl)acryloyl)-4-methylthiazol-2-yl)thio)acetyl)piperazin-1-yl)-6-fluoro-4-oxo-1,4-dihydroquinoline-3-carboxylic Acid]
activity at 10 µM (OVCAR-4): 102% | activity at 10 µM [1]: 83.9% | activity at 10 µM (U251): 48% | activity at 10 µM (NCI-H522): 78.5% | activity at 10 µM (MOLT-4): 89.2% | activity at 10 µM (CCRF-CEM): 90.6% | activity at 10 µM (HCC-2998): 44.4% | activity at 10 µM (MCF7): 17.3% | activity at 10 µM (SK-OV-3): 119% | activity at 10 µM (UACC-62): 79.9% | activity at 10 µM (SF-268): 140% | activity at 10 µM (HOP-92): 91.7% | activity at 10 µM (NCI-H23): 76.2% | activity at 10 µM (DU-145): 147% | activity at 10 µM (ACHN): 97.7% | activity at 10 µM (K-562): 61.3% | activity at 10 µM (OVCAR-3): 172% | activity at 10 µM (KM12): 79.4% | Growth percentage (T-47D): 88.2% | activity at 10 µM (HT29): 47.9% | activity at 10 µM (UACC-257): 108% | activity at 10 µM (SNB-19): 88.6% | activity at 10 µM (SK-MEL-28): 95.9% | Growth percentage (OVCAR-5): 102.5% | activity at 10 µM (SF-539): 74.4% | activity at 10 µM (HS 578T): 81.4% | activity at 10 µM (EKVX): 110%

COc1ccc(/C=C/C(=O)c2sc(SCC(=O)N3CCN(c4cc5c(cc4F)c(=O)c(C(=O)O)cn5C4CC4)CC3)nc2C)cc1 [Compound 4j, (E)-1-Cyclopropyl-6-fluoro-7-(4-(2-((5-(3-(4-methoxyphenyl)acryloyl)-4-methylthiazol-2-yl)thio)acetyl)piperazin-1-yl)-4-oxo-1,4-dihydroquinoline-3-carboxylic Acid]
activity at 10 µM (OVCAR-4): 101% | activity at 10 µM [1]: 105% | activity at 10 µM (U251): 107% | activity at 10 µM (NCI-H522): 99% | activity at 10 µM (MOLT-4): 99.7% | activity at 10 µM (CCRF-CEM): 110% | activity at 10 µM (HCC-2998): 100% | activity at 10 µM (MCF7): 93.3% | activity at 10 µM (SK-OV-3): 115% | activity at 10 µM (UACC-62): 111% | activity at 10 µM (SF-268): 148% | activity at 10 µM (HOP-92): 105% | activity at 10 µM (NCI-H23): 102% | activity at 10 µM (DU-145): 113% | activity at 10 µM (ACHN): 97.4% | activity at 10 µM (K-562): 98.3% | activity at 10 µM (OVCAR-3): 174% | activity at 10 µM (KM12): 112% | Growth percentage (T-47D): 94.7% | activity at 10 µM (HT29): 108% | activity at 10 µM (UACC-257): 114% | activity at 10 µM (SNB-19): 103% | activity at 10 µM (SK-MEL-28): 114% | Growth percentage (OVCAR-5): 110.0% | activity at 10 µM (SF-539): 97.5% | activity at 10 µM (HS 578T): 96.4% | activity at 10 µM (EKVX): 103%

COc1cccc(/C=C/C(=O)c2sc(SCC(=O)N3CCN(c4cc5c(cc4F)c(=O)c(C(=O)O)cn5C4CC4)CC3)nc2C)c1OC [Compound 4k, (E)-1-Cyclopropyl-7-(4-(2-((5-(3-(2,3-dimethoxyphenyl)acryloyl)-4-methylthiazol-2-yl)thio)acetyl)piperazin-1-yl)-6-fluoro-4-oxo-1,4-dihydroquinoline-3-carboxylic Acid]
activity at 10 µM (OVCAR-4): 118% | Growth percentage (NCI-H322M): 114.8% | activity at 10 µM [1]: 77.9% | activity at 10 µM (U251): 103% | Growth percentage (IGROV1): 101.3% | activity at 10 µM (NCI-H522): 104% | activity at 10 µM (MOLT-4): 80.4% | activity at 10 µM (CCRF-CEM): 72% | activity at 10 µM (HCC-2998): 76.8% | activity at 10 µM (SK-OV-3): 76.7% | activity at 10 µM (UACC-62): 102% | Growth percentage (MALME-3M): 115.2% | activity at 10 µM (SF-268): 109% | activity at 10 µM (HOP-92): 122% | activity at 10 µM (NCI-H23): 87.9% | activity at 10 µM (DU-145): 98% | activity at 10 µM (ACHN): 105% | activity at 10 µM (K-562): 133% | activity at 10 µM (OVCAR-3): 84.5% | activity at 10 µM (KM12): 4.4% | activity at 10 µM (HT29): 82.6% | activity at 10 µM (UACC-257): 102% | activity at 10 µM (SNB-19): 87.2% | activity at 10 µM (SK-MEL-28): 100% | activity at 10 µM (HS 578T): 92.8% | activity at 10 µM (EKVX): 96.9%
